Assay results taken from the supplement of paper PMC13380429.
± gives the standard deviation of the averaged measurements.

Experiments:
Conditions in all cases: 72 h
Calu-3 [1] = assay: drug sensitivity score (DSS) for viability; higher = more toxic; extreme values may be limits of the assay
U2OS [2] = assay: as above
Caco-2 [3] = assay: as above
HepG2 [4] = assay: as above
Vero E6 [5] = assay: as above
Calu-3 [6] = assay: cell viability relative to DMSO; higher = less toxic
U2OS [7] = assay: as above
Caco-2 [8] = assay: as above
HepG2 [9] = assay: as above
Vero E6 [10] = assay: as above
Calu-3 [11] = assay: relative viability EC50 (midpoint between 100% and the lowest measured viability); higher = less toxic
U2OS [12] = assay: as above
Caco-2 [13] = assay: as above
HepG2 [14] = assay: as above
Vero E6 [15] = assay: as above

Row | SMILES | drug sensitivity score (Calu-3 [1]) | drug sensitivity score (U2OS [2]) | drug sensitivity score (Caco-2 [3]) | drug sensitivity score (HepG2 [4]) | drug sensitivity score (Vero E6 [5]) | cell viability (Calu-3 [6]; 1 nM) [%] | cell viability (Calu-3 [6]; 10 nM) [%] | cell viability (Calu-3 [6]; 100 nM) [%] | cell viability (Calu-3 [6]; 1000 nM) [%] | cell viability (Calu-3 [6]; 10000 nM) [%] | cell viability (U2OS [7]; 1 nM) [%] | cell viability (U2OS [7]; 10 nM) [%] | cell viability (U2OS [7]; 100 nM) [%] | cell viability (U2OS [7]; 1000 nM) [%] | cell viability (U2OS [7]; 10000 nM) [%] | cell viability (Caco-2 [8]; 1 nM) [%] | cell viability (Caco-2 [8]; 10 nM) [%] | cell viability (Caco-2 [8]; 100 nM) [%] | cell viability (Caco-2 [8]; 1000 nM) [%] | cell viability (Caco-2 [8]; 10000 nM) [%] | cell viability (HepG2 [9]; 1 nM) [%] | cell viability (HepG2 [9]; 10 nM) [%] | cell viability (HepG2 [9]; 100 nM) [%] | cell viability (HepG2 [9]; 1000 nM) [%] | cell viability (HepG2 [9]; 10000 nM) [%] | cell viability (Vero E6 [10]; 1 nM) [%] | cell viability (Vero E6 [10]; 10 nM) [%] | cell viability (Vero E6 [10]; 100 nM) [%] | cell viability (Vero E6 [10]; 1000 nM) [%] | cell viability (Vero E6 [10]; 10000 nM) [%] | relative viability EC50 (Calu-3 [11]) [µM] | relative viability EC50 (U2OS [12]) [µM] | relative viability EC50 (Caco-2 [13]) [µM] | relative viability EC50 (HepG2 [14]) [µM] | relative viability EC50 (Vero E6 [15]) [µM]
1 | C[C@@H]1CN([C@H]2CC[C@](C#N)(c3ccc(F)cc3)CC2)CC[C@]1(C(=O)O)c1ccccc1 [levocabastine] | 0 | 0 | 0 | 0 | 0 | 94.2 | 99.3 | 109 | 99.4 | 96.2 | 97.8 | 98 | 104 | 98 | 105 | 103 | 104 | 108 | 99.5 | 99.3 | 91.5 | 99.6 | 93.6 | 93.7 | 94.2 | 102 | 106 | 100 | 104 | 100 | > 10 | > 10 | > 10 | > 10 | > 10
2 | C=C1/C(=C\C=C2/CCC[C@]3(C)[C@@H]([C@H](C)CCCC(O)(C(F)(F)F)C(F)(F)F)CC[C@@H]23)C[C@@H](O)C[C@@H]1O [falecalcitriol] | 0 | 0 | 0 | 0 | 0 | 122 | 99.3 | 95.7 | 99.7 | 98.2 | 100 | 94.9 | 98.5 | 92.7 | 93.1 | 96.2 | 96.1 | 90.6 | 95.6 | 92.6 | 98.1 | 97 | 94.1 | 102 | 92.9 | 92.4 | 96.2 | 85.8 | 94.9 | 104 | > 10 | > 10 | > 10 | > 10 | > 10
3 | Cc1ccc(C(=O)N(CCCN)[C@@H](c2oc3cc(Cl)ccc3c(=O)c2Cc2ccccc2)C(C)C)cc1 | 7.2 | 18.1 | 14.3 | 27.1 | 19.7 | 98.2 | 91.5 | 89.1 | 90 | 0.4 | 100 | 74.6 | 52.7 | 52 | 8.2 | 98.9 | 78.2 | 62 | 66.1 | 5.6 | 102 | 45.1 | 36.9 | 34.4 | 0.1 | 99.4 | 87.5 | 44.7 | 42 | -0.2 | 2.33 | 0.165 | 0.469 | 0.0342 | 0.169
4 | Oc1nc(O)c2cn[nH]c2n1 [oxypurinol] | 0 | 0 | 0 | 0 | 0 | 95.6 | 108 | 97.2 | 107 | 94.6 | 101 | 102 | 93.6 | 99.5 | 99.8 | 107 | 100 | 98 | 97.7 | 97.1 | 108 | 86.2 | 104 | 101 | 96 | 96.1 | 103 | 98.5 | 101 | 100 | > 10 | > 10 | > 10 | > 10 | > 10
5 | COc1ccc(C2(O)CCC(N3CC[C@@H](NC(=O)CNC(=O)c4cccc(C(F)(F)F)c4)C3)CC2)cn1 (stereo not given in full) | 0 | 0 | 0 | 0 | 0 | 102 ± 13 | 92.8 ± 6.5 | 96.3 ± 4.9 | 97.7 ± 4.2 | 95.2 ± 9.2 | 99.7 ± 2 | 98.5 ± 1.3 | 98.6 ± 2.7 | 99.4 ± 0.14 | 100 ± 4.2 | 100 ± 2.3 | 95.3 ± 5.2 | 95.3 ± 2.9 | 100 ± 2.4 | 94.8 ± 5.4 | 94.8 ± 12 | 97.7 ± 1.6 | 101 ± 8.1 | 94.8 ± 8.5 | 102 ± 8.6 | 97.7 ± 1.4 | 97.8 ± 5.8 | 97.7 ± 1.3 | 95.8 ± 1.9 | 97.6 ± 3.8 | > 10 | > 10 | > 10 | > 10 | > 10
6 | N=C1NC(=O)/C(=C/c2ccc(O)cc2)S1 [mirin] | 0.1 | 0 | 0 | 0 | 0 | 89.9 | 105 | 94.8 | 93.4 | 87.8 | 95.3 | 101 | 97.5 | 99.6 | 97.9 | 95 | 97.8 | 101 | 97.6 | 96.2 | 98.3 | 91.1 | 95.2 | 98 | 96.8 | 99.2 | 96.2 | 96.5 | 93.3 | 104 | > 10 | > 10 | > 10 | > 10 | > 10
7 | CCCOc1ccc(C(=O)OCCN(CC)CC)cc1N [proxymetacaine] | 0 | 0 | 0 | 0 | 0 | 102 | 96.8 | 94.2 | 101 | 102 | 99.9 | 97 | 101 | 97.2 | 102 | 92.8 | 87 | 102 | 90 | 104 | 88.5 | 102 | 99.1 | 113 | 97.9 | 97.2 | 95.9 | 91.9 | 97.1 | 107 | > 10 | > 10 | > 10 | > 10 | > 10
